Our source for the IC50 values is BindingDB's records for doi:10.1016/j.bmcl.2005.07.021 (Johnson & Johnson Pharmaceutical Research and Development, 2005).

The test has as its target Glycogen phosphorylase, muscle form (Oryctolagus cuniculus) (UniProt P00489). Put plainly: Inhibitory concentration against glycogen phosphorylase of rabbit muscle.

Chain of Glycogen phosphorylase, muscle form (Oryctolagus cuniculus) (P00489 whole entry, looked up): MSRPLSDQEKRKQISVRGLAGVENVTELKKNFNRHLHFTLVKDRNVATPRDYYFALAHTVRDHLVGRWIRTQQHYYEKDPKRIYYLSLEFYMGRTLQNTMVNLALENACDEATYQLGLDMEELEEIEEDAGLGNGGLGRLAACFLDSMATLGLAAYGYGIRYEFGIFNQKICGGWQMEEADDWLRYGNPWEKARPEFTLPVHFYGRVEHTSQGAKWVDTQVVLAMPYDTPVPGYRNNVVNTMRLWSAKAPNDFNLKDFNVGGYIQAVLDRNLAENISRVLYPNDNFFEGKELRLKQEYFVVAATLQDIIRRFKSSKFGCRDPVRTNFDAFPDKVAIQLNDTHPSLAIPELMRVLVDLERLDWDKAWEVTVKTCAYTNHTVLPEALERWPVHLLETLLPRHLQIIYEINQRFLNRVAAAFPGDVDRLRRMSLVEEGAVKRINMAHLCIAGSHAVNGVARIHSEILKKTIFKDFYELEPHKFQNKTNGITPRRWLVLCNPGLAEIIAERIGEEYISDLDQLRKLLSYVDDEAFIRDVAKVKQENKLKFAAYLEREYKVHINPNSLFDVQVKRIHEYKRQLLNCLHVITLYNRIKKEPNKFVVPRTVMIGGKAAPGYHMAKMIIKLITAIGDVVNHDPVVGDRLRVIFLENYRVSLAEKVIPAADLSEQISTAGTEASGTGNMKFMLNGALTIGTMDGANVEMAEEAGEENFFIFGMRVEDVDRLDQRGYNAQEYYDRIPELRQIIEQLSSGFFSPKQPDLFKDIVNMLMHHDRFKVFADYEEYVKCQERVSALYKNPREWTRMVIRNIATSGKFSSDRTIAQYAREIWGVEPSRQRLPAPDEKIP

On to `CN(c1ccc(C(=O)Nc2ccon2)cc1)c1nc2ccccc2n(C)c1=O`, for which the concentration for half-maximal inhibition (IC50) is above 10000 nM.
Under `Cn1c(=O)c(Nc2ccc(-c3ccc[nH]3)cc2)nc2ccccc21` [1-Methyl-3-[4-(1H-pyrrol-2-yl)-phenylamino]-1H-quinoxalin-2-one] stands 2500 nM; under `Cn1c(=O)c(Nc2ccc(NC(=O)c3ccc[nH]3)cc2)nc2ccccc21` [1H-Pyrrole-2-carboxylic acid [4-(4-methyl-3-oxo-3,4-dihydro-quinoxalin-2-ylamino)-phenyl]-amide], above 10000 nM.
`Cn1c(=O)c(Nc2ccc(-c3ccoc3)cc2)nc2ccccc21` [3-(4-Furan-3-yl-phenylamino)-1-methyl-1H-quinoxalin-2-one] came in with an IC50 of 5000 nM.
As for `O=c1[nH]c2ccccc2nc1Nc1ccccc1` [3-Phenylamino-1H-quinoxalin-2-one], the figure is 2500 nM; as for `CC(C)n1c(=O)c(Nc2ccc(C(=O)NCc3cccs3)cc2)nc2ccccc21` [4-(4-Isopropyl-3-oxo-3,4-dihydro-quinoxalin-2-ylamino)-N-thiophen-2-ylmethyl-benzamide], above 10000 nM; as for `Cn1c(=O)c(Nc2ccc(C(=O)NCCc3cccs3)cc2)nc2ccccc21` [4-(4-Methyl-3-oxo-3,4-dihydro-quinoxalin-2-ylamino)-N-(2-thiophen-2-yl-ethyl)-benzamide], above 10000 nM.
As for `CN(C)CCn1c(=O)c(Nc2ccc(C(=O)NCc3cccs3)cc2)nc2ccccc21` [4-[4-(2-Dimethylamino-ethyl)-3-oxo-3,4-dihydro-quinoxalin-2-ylamino]-N-thiophen-2-ylmethyl-benzamide], the figure is 710 nM; as for `O=C(NCc1cccs1)c1ccc(Nc2nc3ccccc3n(CCO)c2=O)cc1` [4-[4-(2-Hydroxy-ethyl)-3-oxo-3,4-dihydro-quinoxalin-2-ylamino]-N-thiophen-2-ylmethyl-benzamide], 320 nM; as for `O=C(O)Cn1c(=O)c(Nc2ccc(C(=O)NCc3cccs3)cc2)nc2ccccc21` [(2-Oxo-3-{4-[(thiophen-2-ylmethyl)-carbamoyl]-phenylamino}-2H-quinoxalin-1-yl)-acetic acid], 5700 nM.
Under `Cn1c(=O)c(Nc2ccc(NC(=O)c3ccco3)cc2)nc2ccccc21` [Furan-2-carboxylic acid [4-(4-methyl-3-oxo-3,4-dihydro-quinoxalin-2-ylamino)-phenyl]-amide] stands 2500 nM; under `Cn1c(=O)c(Nc2cccc(NC(=O)c3ccno3)c2)nc2ccccc21` [Isoxazole-5-carboxylic acid [3-(4-methyl-3-oxo-3,4-dihydro-quinoxalin-2-ylamino)-phenyl]-amide], above 10000 nM.

As usually defined, the IC50 is the concentration that inhibits the measured activity by half. Read a high IC50 as weaker potency in that assay.
